One data set deals with T1, human PEPT2 (Homo sapiens, UniProt Q16348).
T1 sequence (Q16348 1-729): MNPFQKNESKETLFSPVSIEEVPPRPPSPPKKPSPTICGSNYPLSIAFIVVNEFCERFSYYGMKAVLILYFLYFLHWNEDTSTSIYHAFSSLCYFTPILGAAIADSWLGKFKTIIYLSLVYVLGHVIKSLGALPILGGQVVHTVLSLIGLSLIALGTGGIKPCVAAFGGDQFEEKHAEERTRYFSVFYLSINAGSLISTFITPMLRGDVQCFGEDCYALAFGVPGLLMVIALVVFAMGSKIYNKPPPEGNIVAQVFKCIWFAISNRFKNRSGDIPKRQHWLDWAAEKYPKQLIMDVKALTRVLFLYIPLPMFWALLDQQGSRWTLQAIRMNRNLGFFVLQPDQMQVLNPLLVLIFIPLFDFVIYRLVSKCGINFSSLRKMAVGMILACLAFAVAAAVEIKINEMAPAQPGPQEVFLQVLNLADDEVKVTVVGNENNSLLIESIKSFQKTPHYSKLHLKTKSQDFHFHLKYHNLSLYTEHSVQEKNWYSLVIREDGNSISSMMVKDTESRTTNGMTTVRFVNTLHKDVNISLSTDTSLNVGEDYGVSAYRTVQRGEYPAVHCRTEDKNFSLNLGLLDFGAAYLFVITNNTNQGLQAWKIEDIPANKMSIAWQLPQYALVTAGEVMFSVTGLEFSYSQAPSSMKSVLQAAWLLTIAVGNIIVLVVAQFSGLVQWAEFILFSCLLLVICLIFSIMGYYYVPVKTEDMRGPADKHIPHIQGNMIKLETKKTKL
The data set is described as follows: Cellular transport assay, HEK-293 cells expressing human PEPT2. As to conditions: Danshen phenolic acid at 100 μM final concentration, 10 min, incubation pH 6.0; human PEPT2-transfected vs mock cells.

Another data set addresses T2, human NTCP (Homo sapiens, UniProt Q14973).
T2 sequence (Q14973 1-349): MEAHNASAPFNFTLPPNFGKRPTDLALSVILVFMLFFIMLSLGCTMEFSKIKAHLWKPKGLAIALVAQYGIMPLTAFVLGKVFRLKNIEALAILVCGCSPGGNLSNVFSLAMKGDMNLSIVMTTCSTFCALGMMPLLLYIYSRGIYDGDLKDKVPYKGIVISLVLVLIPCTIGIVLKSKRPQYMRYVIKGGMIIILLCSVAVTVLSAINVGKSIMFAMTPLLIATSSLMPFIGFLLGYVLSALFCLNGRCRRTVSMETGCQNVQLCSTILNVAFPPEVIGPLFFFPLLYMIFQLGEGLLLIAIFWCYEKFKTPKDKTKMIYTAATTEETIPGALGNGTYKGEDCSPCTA
The data set is described as follows: Cellular transport assay, HEK-293 cells expressing human NTCP. The note with it: Danshen phenolic acid at 100 μM final concentration, 10 min; human NTCP-transfected vs mock cells.

The next data set has as its target T3, rat Oct3 (Rattus norvegicus, UniProt O88446).
T3 sequence (O88446 1-551): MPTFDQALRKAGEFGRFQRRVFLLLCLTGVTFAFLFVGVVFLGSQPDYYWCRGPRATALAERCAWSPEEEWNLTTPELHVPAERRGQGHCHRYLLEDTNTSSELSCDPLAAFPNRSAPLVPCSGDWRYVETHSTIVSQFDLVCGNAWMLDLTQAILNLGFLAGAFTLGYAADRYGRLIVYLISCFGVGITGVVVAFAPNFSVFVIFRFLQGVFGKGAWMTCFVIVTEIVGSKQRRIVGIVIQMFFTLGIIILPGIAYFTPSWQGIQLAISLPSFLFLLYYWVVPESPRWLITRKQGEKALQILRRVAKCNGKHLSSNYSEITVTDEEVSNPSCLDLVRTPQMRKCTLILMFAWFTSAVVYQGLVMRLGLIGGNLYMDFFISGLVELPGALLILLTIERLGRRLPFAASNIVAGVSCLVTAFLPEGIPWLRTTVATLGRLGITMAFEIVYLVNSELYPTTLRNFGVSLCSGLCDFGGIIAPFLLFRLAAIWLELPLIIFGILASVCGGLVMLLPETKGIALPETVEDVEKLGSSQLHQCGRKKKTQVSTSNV
The data set is described as follows: Cellular transport assay, HEK-293 cells expressing rat Oct3. As to conditions: Danshen phenolic acid at 100 μM final concentration, 10 min; rat Oct3-transfected vs mock cells.

With `O=C(/C=C/c1ccc(O)c2c1[C@H](C(=O)O)[C@@H](c1ccc(O)c(O)c1)O2)O[C@H](Cc1ccc(O)c(O)c1)C(=O)O` [Lithospermic acid, lithospermic acid], the figures for the “TransportTC/TransportMC ratio (net transport ratio)” value (“TransportTC/TransportMC ratio” below) on human PEPT2, at human NTCP and at rat Oct3 were 0.74 ± 0.06, 2.44 ± 0.13 and 0.81 ± 0.13, respectively.

Turning to `O=C(O)c1ccc(O)c(O)c1` [Protocatechuic acid, protocatechuic acid], the “TransportTC/TransportMC ratio” value on human PEPT2 is reported as 1.43 ± 0.32; on human NTCP it was 1.26 ± 0.15; on rat Oct3 it was 0.85 ± 0.11.

In the case of `O=C(/C=C/c1ccc(O)c(O)c1)O[C@H](Cc1ccc(O)c(O)c1)C(=O)O` [Rosmarinic acid, rosmarinic acid], at rat Oct3, the “TransportTC/TransportMC ratio” value is 0.74 ± 0.24.

Take `O=C(O)Cc1c(/C=C/C(=O)O[C@H](Cc2ccc(O)c(O)c2)C(=O)O)ccc(O)c1O` [Salvianolic acid D, salvianolic acid D]: the “TransportTC/TransportMC ratio” value on human PEPT2 was found to be 1.03 ± 0.11; on human NTCP, 2.09 ± 0.36; on rat Oct3, 0.93 ± 0.15.

As for salvianolic acid B, the “TransportTC/TransportMC ratio” value turned out to be 1.06 ± 0.12 on human PEPT2, 2.88 ± 0.21 at human NTCP and 0.84 ± 0.31 at rat Oct3.

The values above are taken from article PMC9127186, “Molecular Basis Underlying Hepatobiliary and Renal Excretion of Phenolic Acids of Salvia miltiorrhiza Roots (Danshen)” (Frontiers in Pharmacology, 2022).
